biological target: T1, BTK enzyme (recombinant full-length BTK, hBTK) (Homo sapiens, UniProt Q06187); experiment: Btk enzyme activity assay (LANCE TR-FRET); format: biochemical; settings: 60 minute compound & enzyme incubation, 50 pM hBTK, 25 μM ATP, read-out: BTK binding IC50
T1 construct: recombinant protein from baculovirus-transfected Sf9 cells: full-length BTK, 6HIS-tag cleaved; 6HIS (cleaved yes); made in house; host or cells: baculovirus-transfected Sf9 cells
Procedure: BTK enzymatic activity was determined with the LANCE (Lanthanide Chelate Excite) TR-FRET (Time-resolved fluorescence resonance energy transfer) assay. In this assay, the potency (IC50) of each compound was determined from an eleven point (1:3 serial dilution; final compound concentration range in assay from 1 μM to 0.017 nM) titration curve using the following outlined procedure. To each well of a black non-binding surface Corning 384-well microplate (Corning Catalog #3820), 5 nL of compound (2000 fold dilution in final assay volume of 10 μL) was dispensed, followed by the addition of 7.5 μL of 1× kinase buffer (50 mM Hepes 7.5, 10 mM MgCl2, 0.01% Brij-35, 1 mM EGTA, 0.05% BSA & 1 mM DTT) containing 5.09 pg/μL (66.67 pM) of BTK enzyme (recombinant protein from baculovirus-transfected Sf9 cells: full-length BTK, 6HIS-tag cleaved). Following a 60 minute compound & enzyme incubation, each reaction was initiated by the addition of 2.5 μL 1× kinase buffer containing 8 μM biotinylated “AS” peptide (Biotin-EQEDEPEGDYFEWLE-NH2), and 100 μM ATP. The final reaction in each well of 10 μL consists of 50 pM hBTK, 2 μM biotin-AS-peptide, and 25 μM ATP. Phosphorylation reactions were allowed to proceed for 120 minutes. Reactions were immediately quenched by the addition of 20 uL of 1× quench buffer (15 mM EDTA, 25 mM Hepes 7.3, and 0.1% Triton X-100) containing detection reagents (0.626 nM of LANCE-Eu-W1024-anti-phosphoTyrosine antibody, PerkinElmer and 86.8 nM of Streptavidin-conjugated Dylight 650, Dyomics/ThermoFisher Scientific). After 60 minutes incubation with detection reagents, reaction plates were read on a PerkinElmer EnVision plate reader using standard TR-FRET protocol. Briefly, excitation of donor molecules (Eu-chelate:anti-phospho-antibody) with a laser light source at 337 nm produces energy that can be transferred to Dylight-650 acceptor molecules if this donor:acceptor pair is within close proximity. Fluorescence intensity at both 665 nm (acceptor) and 615 nm (donor) are measured and a TR-FRET ratio calculated for each well (acceptor intensity/donor intensity). IC50 values were determined by 4 parameter robust fit of TR-FRET ratio values vs. (Log10) compound concentrations.

T1 sequence (Q06187 whole entry): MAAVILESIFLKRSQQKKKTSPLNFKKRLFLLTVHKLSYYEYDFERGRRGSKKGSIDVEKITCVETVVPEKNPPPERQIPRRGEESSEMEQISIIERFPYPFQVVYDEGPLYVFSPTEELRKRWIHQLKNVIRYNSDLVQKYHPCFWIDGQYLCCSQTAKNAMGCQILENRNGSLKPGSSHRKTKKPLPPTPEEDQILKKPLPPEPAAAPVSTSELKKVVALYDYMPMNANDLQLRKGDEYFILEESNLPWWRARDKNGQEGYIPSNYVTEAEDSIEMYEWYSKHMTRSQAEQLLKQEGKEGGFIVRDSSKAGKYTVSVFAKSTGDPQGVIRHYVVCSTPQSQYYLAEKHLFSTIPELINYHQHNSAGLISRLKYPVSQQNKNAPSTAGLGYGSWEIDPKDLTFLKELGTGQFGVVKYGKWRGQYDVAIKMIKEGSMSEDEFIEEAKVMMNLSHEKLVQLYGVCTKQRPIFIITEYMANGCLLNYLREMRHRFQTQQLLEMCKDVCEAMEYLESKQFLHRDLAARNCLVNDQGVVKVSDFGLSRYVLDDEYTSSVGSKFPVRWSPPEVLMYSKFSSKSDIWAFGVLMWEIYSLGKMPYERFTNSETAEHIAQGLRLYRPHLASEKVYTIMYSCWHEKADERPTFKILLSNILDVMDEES

SMILES	IC50 [nM]
N#CN1CCC[C@@H](c2nc(-c3ccc(C(=O)Nc4ccccn4)cc3)c3c(N)nccn23)C1 [Example 2, 4-{8-amino-3-[(3R)-1-cyanopiperidin-3-yl]imidazo[1,5-a]pyrazin-1-yl}-N-pyridin-2-ylbenzamide]	1.5
N#CN1CCC[C@H]1c1nc(-c2ccc(C(=O)Nc3cc(F)ccn3)cc2)c2c(N)nccn12 [Example 4, 4-{8-amino-3-[(2S)-1-cyanopyrrolidin-2-yl]imidazo[1,5-a]pyrazin-1-yl}-N-(4-fluoropyridin-2-yl)benzamide]	49
Cc1nccn2c([C@@H]3CCCN3C#N)nc(-c3ccc(C(=O)Nc4ccccn4)cc3)c12 [Example 5, 4-{3-[(2S)-1-cyanopyrrolidin-2-yl]-8-methylimidazo[1,5-a]pyrazin-1-yl}-N-pyridin-2-ylbenzamide]	371
C[C@H]1CO[C@@H](c2nc(-c3ccc(C(=O)Nc4cc(C(F)(F)F)ccn4)cc3F)c3c(N)ncc(Cl)n23)CN1C#N [Example 20, 4-{8-amino-5-chloro-3-[(2R,5S)-4-cyano-5-methylmorpholin-2-yl]imidazo[1,5-a]pyrazin-1-yl}-3-fluoro-N-[4-(trifluoromethyl)pyridin-2-yl]benzamide]	0.48
N#CN1CCC[C@@H](c2nc(-c3ccc(C(=O)Nc4cc(C(F)F)ccn4)cc3)c3c(N)nccn23)C1 [Example 16, 4-{8-amino-3-[(3R)-1-cyanopiperidin-3-yl]imidazo[1,5-a]pyrazin-1-yl}-N-[4-(difluoromethyl)pyridin-2-yl]benzamide]	0.29
N#CN1CCC[C@H]1c1nc(-c2ccc(C(=O)Nc3cc(C4CC4)ccn3)cc2)c2c(N)nccn12 [Example 9, 4-{8-amino-3-[(2S)-1-cyanopyrrolidin-2-yl]imidazo[1,5-a]pyrazin-1-yl}-N-(4-cyclopropylpyridin-2-yl)benzamide]	67.6
N#CN1CCOC(c2nc(-c3ccc(C(=O)Nc4cc(C(F)(F)F)ccn4)cc3)c3c(N)nccn23)C1 (centres unmarked) [Example 6, 4-[8-amino-3-(4-cyanomorpholin-2-yl)imidazo[1,5-a]pyrazin-1-yl]-N-[4-(trifluoromethyl)pyridin-2-yl]benzamide]	3.9
C[C@H]1CC[C@@H](c2nc(-c3ccc(C(=O)Nc4ccccn4)cc3)c3c(N)nccn23)CN1C#N [Example 10, 4-{8-amino-3-[(3R,6S)-1-cyano-6-methylpiperidin-3-yl]imidazo[1,5-a]pyrazin-1-yl}-N-pyridin-2-ylbenzamide]	3.1
CCOc1cc(C(=O)Nc2cc(C(F)(F)F)ccn2)ccc1-c1nc([C@H]2CN(C#N)[C@@H](C)CO2)n2c(Cl)cnc(N)c12 [Example 21, 4-{8-amino-5-chloro-3-[(2R,5S)-4-cyano-5-methylmorpholin-2-yl]imidazo[1,5-a]pyrazin-1-yl}-3-ethoxy-N-[4-(trifluoromethyl)pyridin-2-yl]benzamide]	1.5
COc1ccnc(NC(=O)c2ccc(-c3nc([C@@H]4CCCN(C#N)C4)n4ccnc(N)c34)cc2)c1 [Example 15, 4-{8-amino-3-[(3R)-1-cyanopiperidin-3-yl]imidazo[1,5-a]pyrazin-1-yl}-N-(4-methoxypyridin-2-yl)benzamide]	0.41
Cc1ccnc(NC(=O)c2ccc(-c3nc([C@@H]4CCCN(C#N)C4)n4ccnc(N)c34)cc2)c1 [Example 14, 4-{8-amino-3-[(3R)-1-cyanopiperidin-3-yl]imidazo[1,5-a]pyrazin-1-yl}-N-(4-methylpyridin-2-yl)benzamide]	0.24
N#CN1CCC[C@@H](c2nc(-c3ccc(C(=O)Nc4cc(C5CC5)ccn4)cc3)c3c(N)nccn23)C1 [Example 7, 4-{8-amino-3-[(3R)-1-cyanopiperidin-3-yl]imidazo[1,5-a]pyrazin-1-yl}-N-(4-cyclopropylpyridin-2-yl)benzamide]	1.8
N#CN1CCC[C@H]1c1nc(-c2ccc(C(=O)Nc3ccccn3)cc2)c2c(N)nccn12 [Example 3, 4-{8-amino-3-[(2S)-1-cyanopyrrolidin-2-yl]imidazo[1,5-a]pyrazin-1-yl}-N-pyridin-2-ylbenzamide]	60.3
N#CN1CCO[C@@H](c2nc(-c3ccc(C(=O)Nc4cc(C5CC5)ccn4)cc3)c3c(N)nccn23)C1 [Example 12, 4-{8-amino-3-[(2R)-4-cyanomorpholin-2-yl]imidazo[1,5-a]pyrazin-1-yl}-N-(4-cyclopropylpyridin-2-yl)benzamide]	1
Cc1nccn2c([C@@H]3CCCN(C#N)C3)nc(-c3ccc(C(=O)Nc4cc(C5CC5)ccn4)cc3)c12 [Example 8, 4-{3-[(3R)-1-cyanopiperidin-3-yl]-8-methylimidazo[1,5-a]pyrazin-1-yl}-N-(4-cyclopropylpyridin-2-yl)benzamide]	46.8
N#CN1CCO[C@@H](c2nc(-c3ccc(C(=O)Nc4cc(C(F)(F)F)ccn4)cc3)c3c(N)nccn23)C1 [Example 11, 4-{8-amino-3-[(2R)-4-cyanomorpholin-2-yl]imidazo[1,5-a]pyrazin-1-yl}-N-[4-(trifluoromethyl)pyridin-2-yl]benzamide]	0.78

The remaining lines, values ahead:

IC50 [nM]	SMILES
0.6	COc1cc(C(=O)Nc2cc(C(F)(F)F)ccn2)ccc1-c1nc([C@H]2CN(C#N)CCO2)n2ccnc(N)c12 [Example 22, 4-{8-amino-3-[(2R)-4-cyanomorpholin-2-yl]imidazo[1,5-a]pyrazin-1-yl}-3-methoxy-N-[4-(trifluoromethyl)pyridin-2-yl]benzamide]
2.2	CCOc1cc(C(=O)Nc2cc(C(F)(F)F)ccn2)ccc1-c1nc([C@@H]2CC[C@H](C)N(C#N)C2)n2c(Cl)cnc(N)c12 [Example 23, 4-{8-amino-5-chloro-3-[(3R,6S)-1-cyano-6-methylpiperidin-3-yl]imidazo[1,5-a]pyrazin-1-yl}-3-ethoxy-N-[4-(trifluoromethyl)pyridin-2-yl]benzamide]
3.6	N#CN1CCC[C@@H](c2nc(-c3ccc(C(=O)Nc4cc(C(F)(F)F)ccn4)cc3)c3c(N)nccn23)C1 [Example 1, 4-{8-amino-3-[(3R)-1-cyanopiperidin-3-yl]imidazo[1,5-a]pyrazin-1-yl}-N-[4-(trifluoromethyl)pyridin-2-yl]benzamide]
0.19	N#CN1CCC[C@@H](c2nc(-c3ccc(C(=O)Nc4cc(C(F)(F)F)ccn4)cc3)c3c(N)ncc(Cl)n23)C1 [Example 17, 4-{8-amino-5-chloro-3-[(3R)-1-cyanopiperidin-3-yl]imidazo[1,5-a]pyrazin-1-yl}-N-[4-(trifluoromethyl)pyridin-2-yl]benzamide]
0.36	N#CN1CCC[C@@H](c2nc(-c3ccc(C(=O)Nc4cc(C(F)(F)F)ccn4)cc3F)c3c(N)nccn23)C1 [Example 13, 4-{8-amino-3-[(3R)-1-cyanopiperidin-3-yl]imidazo[1,5-a]pyrazin-1-yl}-3-fluoro-N-[4-(trifluoromethyl)pyridin-2-yl]benzamide]
0.68	CCOc1cc(C(=O)Nc2cc(C(F)(F)F)ccn2)ccc1-c1nc([C@@H]2CCCN(C#N)C2)n2ccnc(N)c12 [Example 19, 4-{8-amino-3-[(3R)-1-cyanopiperidin-3-yl]imidazo[1,5-a]pyrazin-1-yl}-3-ethoxy-N-[4-(trifluoromethyl)pyridin-2-yl]benzamide]
0.92	COCc1cnc(N)c2c(-c3ccc(C(=O)Nc4cc(C(F)(F)F)ccn4)cc3F)nc([C@@H]3CCCN(C#N)C3)n12 [Example 18, 4-{8-amino-3-[(3R)-1-cyanopiperidin-3-yl]-5-(methoxymethyl)imidazo[1,5-a]pyrazin-1-yl}-3-fluoro-N-[4-(trifluoromethyl)pyridin-2-yl]benzamide]
